The source of these data is ChEMBL document CHEMBL1145498, “A systematic interaction map of validated kinase inhibitors with Ser/Thr kinases” (Proc Natl Acad Sci U S A, 2007).

Assay [1] deals with STE20-like serine/threonine-protein kinase (Homo sapiens) (UniProt Q9H2G2).
The target of assay [2] is Serine/threonine-protein kinase pim-2 (Homo sapiens, UniProt Q9P1W9).
Assay [3] addresses Mitogen-activated protein kinase 11 (Homo sapiens, UniProt Q15759).
For assay [4], the target named is Serine/threonine-protein kinase 26 (Homo sapiens) (UniProt Q9P289).
Sequence of Serine/threonine-protein kinase 26 (Homo sapiens) (Q9P289 2-416 limits assumed): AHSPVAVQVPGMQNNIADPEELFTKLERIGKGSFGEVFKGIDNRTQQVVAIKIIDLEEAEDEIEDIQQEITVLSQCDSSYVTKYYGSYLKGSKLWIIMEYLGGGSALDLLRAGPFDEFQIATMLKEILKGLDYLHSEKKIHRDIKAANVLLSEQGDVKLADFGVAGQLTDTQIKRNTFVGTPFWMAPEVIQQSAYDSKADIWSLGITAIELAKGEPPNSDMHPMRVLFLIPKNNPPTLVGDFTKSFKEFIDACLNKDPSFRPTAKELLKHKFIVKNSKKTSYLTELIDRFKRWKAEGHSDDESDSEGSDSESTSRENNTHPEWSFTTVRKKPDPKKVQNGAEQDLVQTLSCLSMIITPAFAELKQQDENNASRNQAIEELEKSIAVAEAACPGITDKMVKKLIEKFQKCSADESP
In assay [5] the target is T1, Serine/threonine-protein kinase Nek2 (Homo sapiens) (UniProt P51955).
T1 sequence (whole entry): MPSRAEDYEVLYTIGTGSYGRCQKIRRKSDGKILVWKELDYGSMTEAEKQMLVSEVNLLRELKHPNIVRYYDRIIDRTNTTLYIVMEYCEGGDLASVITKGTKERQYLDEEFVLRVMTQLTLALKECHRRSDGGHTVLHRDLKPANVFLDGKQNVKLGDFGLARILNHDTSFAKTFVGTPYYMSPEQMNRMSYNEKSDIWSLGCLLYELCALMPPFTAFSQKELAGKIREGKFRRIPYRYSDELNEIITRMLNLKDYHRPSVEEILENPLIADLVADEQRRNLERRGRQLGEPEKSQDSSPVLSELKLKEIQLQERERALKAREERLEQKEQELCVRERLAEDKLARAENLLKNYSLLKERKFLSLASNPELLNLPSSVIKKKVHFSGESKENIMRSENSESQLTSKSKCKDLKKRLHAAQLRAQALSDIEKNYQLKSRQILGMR

Assay [6] has as its target Serine/threonine-protein kinase 38 (Homo sapiens) (UniProt Q15208).
In assay [7] the target is T2, Serine/threonine-protein kinase 4 (Homo sapiens) (UniProt Q13043).
T2 sequence (whole entry): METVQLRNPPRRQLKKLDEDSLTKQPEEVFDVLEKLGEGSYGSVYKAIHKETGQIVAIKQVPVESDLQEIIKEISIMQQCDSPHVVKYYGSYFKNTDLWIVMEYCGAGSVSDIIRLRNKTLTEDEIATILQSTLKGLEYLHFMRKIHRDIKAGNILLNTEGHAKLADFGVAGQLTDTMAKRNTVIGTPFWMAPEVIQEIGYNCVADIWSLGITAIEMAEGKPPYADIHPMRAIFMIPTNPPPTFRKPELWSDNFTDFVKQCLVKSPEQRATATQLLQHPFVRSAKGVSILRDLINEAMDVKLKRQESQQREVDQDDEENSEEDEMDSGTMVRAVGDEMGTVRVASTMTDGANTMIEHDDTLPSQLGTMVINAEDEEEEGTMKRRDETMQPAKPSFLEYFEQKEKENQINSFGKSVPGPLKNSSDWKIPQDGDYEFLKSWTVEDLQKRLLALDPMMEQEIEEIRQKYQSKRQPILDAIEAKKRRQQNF

For assay [8], the target named is T3, Serine/threonine-protein kinase VRK3 (Homo sapiens) (UniProt Q8IV63).
T3 sequence (whole entry): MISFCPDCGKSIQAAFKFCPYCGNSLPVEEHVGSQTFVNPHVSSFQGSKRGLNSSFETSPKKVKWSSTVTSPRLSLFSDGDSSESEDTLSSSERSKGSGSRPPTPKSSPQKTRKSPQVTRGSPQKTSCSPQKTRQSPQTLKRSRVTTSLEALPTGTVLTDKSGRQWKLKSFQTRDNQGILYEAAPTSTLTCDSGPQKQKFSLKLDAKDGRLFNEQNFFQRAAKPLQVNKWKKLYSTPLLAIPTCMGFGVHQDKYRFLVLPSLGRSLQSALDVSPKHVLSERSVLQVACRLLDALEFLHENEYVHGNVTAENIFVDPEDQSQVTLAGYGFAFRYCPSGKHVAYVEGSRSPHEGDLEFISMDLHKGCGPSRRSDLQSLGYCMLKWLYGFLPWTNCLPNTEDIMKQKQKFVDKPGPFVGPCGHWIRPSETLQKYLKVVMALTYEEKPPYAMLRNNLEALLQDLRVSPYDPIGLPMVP

The target in assay [9] is TRAF2 and NCK-interacting protein kinase (Homo sapiens) (UniProt Q9UKE5).
The target in assay [10] is Serine/threonine-protein kinase 10 (Homo sapiens) (UniProt O94804).
Sequence of Serine/threonine-protein kinase 10 (Homo sapiens) (O94804 whole entry, looked up): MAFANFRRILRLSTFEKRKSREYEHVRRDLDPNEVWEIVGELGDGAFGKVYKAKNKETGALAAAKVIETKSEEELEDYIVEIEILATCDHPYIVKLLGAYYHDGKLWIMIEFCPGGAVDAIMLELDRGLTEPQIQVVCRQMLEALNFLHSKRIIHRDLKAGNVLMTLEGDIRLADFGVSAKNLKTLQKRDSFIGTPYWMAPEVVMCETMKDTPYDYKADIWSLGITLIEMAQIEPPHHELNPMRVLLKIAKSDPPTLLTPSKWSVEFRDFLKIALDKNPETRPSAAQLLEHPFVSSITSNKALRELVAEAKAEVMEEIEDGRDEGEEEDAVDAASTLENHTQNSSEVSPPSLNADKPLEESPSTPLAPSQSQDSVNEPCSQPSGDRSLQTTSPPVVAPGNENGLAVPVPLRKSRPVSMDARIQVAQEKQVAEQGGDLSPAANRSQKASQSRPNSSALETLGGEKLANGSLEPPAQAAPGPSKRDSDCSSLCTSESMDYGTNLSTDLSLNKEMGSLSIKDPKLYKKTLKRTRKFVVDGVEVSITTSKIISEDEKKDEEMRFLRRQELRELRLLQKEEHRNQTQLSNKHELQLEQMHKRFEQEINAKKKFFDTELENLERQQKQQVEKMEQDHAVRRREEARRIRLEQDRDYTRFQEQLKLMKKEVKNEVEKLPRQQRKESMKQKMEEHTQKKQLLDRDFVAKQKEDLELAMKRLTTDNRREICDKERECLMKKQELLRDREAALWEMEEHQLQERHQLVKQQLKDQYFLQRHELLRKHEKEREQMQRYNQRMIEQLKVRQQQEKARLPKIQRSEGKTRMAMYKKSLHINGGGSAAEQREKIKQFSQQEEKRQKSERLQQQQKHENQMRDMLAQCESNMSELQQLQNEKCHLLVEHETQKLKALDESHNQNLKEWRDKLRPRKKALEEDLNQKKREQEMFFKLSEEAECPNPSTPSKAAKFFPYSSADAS
Assay [11] concerns the target Serine/threonine-protein kinase PAK 6 (Homo sapiens) (UniProt Q9NQU5).
The target of assay [12] is T4, Calcium/calmodulin-dependent protein kinase type IV (Homo sapiens) (UniProt Q16566).
T4 sequence (whole entry): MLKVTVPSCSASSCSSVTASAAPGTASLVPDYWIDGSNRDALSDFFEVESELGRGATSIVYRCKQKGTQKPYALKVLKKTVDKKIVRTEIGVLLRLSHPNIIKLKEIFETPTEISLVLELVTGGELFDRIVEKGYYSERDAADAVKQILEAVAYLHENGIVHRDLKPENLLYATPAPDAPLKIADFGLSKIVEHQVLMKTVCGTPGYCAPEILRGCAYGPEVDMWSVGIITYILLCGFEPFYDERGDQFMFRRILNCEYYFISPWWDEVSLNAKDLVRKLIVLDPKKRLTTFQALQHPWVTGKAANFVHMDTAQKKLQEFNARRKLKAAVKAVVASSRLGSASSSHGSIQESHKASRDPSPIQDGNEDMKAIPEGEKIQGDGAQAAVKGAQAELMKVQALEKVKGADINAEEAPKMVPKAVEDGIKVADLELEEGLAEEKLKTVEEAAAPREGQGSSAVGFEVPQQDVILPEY

Assay [13] has as its target Mitogen-activated protein kinase 3 (Homo sapiens, UniProt P27361).
Assay [14] has as its target Dual specificity mitogen-activated protein kinase kinase 2 (Homo sapiens, UniProt P36507).
Assay [15] has as its target Serine/threonine-protein kinase RIO2 (Homo sapiens) (UniProt Q9BVS4).
Assay [16] has as its target Calcium/calmodulin-dependent protein kinase type II subunit gamma (Homo sapiens) (UniProt Q13555).
The target in assay [17] is Cyclin-dependent kinase 2 (Homo sapiens, UniProt P24941).
Assay [18] concerns the target Serine/threonine-protein kinase pim-1 (Homo sapiens) (UniProt P11309).
For assay [19], the target named is Calcium/calmodulin-dependent protein kinase type 1D (Homo sapiens) (UniProt Q8IU85).
Sequence of Calcium/calmodulin-dependent protein kinase type 1D (Homo sapiens) (Q8IU85 whole entry, looked up): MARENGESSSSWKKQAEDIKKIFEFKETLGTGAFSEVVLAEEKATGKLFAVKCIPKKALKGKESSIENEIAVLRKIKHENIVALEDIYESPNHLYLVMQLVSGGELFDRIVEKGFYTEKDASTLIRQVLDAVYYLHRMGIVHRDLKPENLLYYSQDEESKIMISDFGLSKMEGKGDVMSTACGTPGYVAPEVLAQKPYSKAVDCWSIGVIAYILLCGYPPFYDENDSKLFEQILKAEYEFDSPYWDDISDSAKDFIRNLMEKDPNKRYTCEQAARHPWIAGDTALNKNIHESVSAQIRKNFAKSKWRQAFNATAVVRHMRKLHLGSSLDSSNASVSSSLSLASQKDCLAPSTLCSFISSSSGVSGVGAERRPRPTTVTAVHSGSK
Assay [20] has as its target Serine/threonine-protein kinase Chk2 (Homo sapiens, UniProt O96017).

Sequence of Serine/threonine-protein kinase PAK 6 (Homo sapiens) (Q9NQU5 whole entry, looked up): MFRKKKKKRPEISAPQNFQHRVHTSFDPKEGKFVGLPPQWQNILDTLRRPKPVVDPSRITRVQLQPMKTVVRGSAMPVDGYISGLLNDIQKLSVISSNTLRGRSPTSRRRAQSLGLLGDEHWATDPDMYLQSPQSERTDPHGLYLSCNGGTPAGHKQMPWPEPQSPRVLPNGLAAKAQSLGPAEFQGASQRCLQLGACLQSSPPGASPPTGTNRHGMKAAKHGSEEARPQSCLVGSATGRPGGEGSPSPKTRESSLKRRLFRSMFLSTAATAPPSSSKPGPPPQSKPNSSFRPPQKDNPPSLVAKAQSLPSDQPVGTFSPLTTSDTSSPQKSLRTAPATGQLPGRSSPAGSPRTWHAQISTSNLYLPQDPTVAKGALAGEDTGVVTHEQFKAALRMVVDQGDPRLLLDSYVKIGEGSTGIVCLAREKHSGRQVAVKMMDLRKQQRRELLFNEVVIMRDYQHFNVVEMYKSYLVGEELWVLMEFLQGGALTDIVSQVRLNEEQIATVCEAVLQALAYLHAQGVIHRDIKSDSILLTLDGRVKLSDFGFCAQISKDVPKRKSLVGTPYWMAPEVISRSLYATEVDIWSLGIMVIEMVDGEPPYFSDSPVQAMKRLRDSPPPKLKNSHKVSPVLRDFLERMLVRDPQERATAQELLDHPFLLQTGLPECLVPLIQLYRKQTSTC
Sequence of Dual specificity mitogen-activated protein kinase kinase 2 (P36507 whole entry): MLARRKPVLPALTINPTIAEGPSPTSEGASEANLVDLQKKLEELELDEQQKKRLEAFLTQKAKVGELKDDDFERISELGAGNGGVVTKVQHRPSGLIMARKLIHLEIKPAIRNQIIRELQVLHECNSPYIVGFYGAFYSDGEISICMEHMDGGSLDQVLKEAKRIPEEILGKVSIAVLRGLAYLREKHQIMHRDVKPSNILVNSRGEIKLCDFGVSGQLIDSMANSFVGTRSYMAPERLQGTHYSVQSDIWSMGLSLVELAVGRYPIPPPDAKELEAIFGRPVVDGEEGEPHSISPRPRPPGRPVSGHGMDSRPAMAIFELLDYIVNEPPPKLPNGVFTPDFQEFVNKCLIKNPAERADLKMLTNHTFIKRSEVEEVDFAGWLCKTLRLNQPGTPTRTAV
Sequence of STE20-like serine/threonine-protein kinase (Homo sapiens) (Q9H2G2 whole entry, looked up): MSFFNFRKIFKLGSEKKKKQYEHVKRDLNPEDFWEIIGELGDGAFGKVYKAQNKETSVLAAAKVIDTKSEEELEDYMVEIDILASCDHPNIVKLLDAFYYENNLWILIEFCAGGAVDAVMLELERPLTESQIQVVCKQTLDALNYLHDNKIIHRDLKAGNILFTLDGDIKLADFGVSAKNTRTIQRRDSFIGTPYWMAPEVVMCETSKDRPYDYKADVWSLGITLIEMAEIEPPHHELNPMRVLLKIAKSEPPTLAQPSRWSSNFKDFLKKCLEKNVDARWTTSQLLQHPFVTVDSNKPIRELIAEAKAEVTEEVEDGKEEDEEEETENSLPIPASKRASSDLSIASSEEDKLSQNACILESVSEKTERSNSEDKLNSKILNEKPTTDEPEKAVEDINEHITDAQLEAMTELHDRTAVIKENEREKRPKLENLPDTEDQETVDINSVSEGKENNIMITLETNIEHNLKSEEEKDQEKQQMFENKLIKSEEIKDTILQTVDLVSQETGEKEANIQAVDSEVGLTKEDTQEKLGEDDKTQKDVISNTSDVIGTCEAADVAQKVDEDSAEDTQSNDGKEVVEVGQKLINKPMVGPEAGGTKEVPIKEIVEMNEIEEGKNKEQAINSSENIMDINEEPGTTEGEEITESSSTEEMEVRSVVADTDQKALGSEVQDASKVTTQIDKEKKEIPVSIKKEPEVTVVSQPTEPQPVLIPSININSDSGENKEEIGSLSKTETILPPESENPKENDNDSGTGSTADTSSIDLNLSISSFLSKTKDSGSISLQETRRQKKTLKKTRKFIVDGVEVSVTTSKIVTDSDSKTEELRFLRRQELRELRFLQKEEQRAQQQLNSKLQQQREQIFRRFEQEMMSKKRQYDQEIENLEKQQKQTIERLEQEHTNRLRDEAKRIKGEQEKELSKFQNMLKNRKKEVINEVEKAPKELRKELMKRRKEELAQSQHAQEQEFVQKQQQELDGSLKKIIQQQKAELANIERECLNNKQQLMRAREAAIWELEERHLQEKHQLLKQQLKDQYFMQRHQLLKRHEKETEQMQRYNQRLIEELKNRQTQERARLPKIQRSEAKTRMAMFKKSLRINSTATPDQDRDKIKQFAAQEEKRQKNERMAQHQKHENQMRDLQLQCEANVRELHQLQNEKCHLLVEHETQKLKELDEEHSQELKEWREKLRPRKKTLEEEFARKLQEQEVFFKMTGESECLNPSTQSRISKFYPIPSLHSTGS
Sequence of Serine/threonine-protein kinase Chk2 (O96017 whole entry): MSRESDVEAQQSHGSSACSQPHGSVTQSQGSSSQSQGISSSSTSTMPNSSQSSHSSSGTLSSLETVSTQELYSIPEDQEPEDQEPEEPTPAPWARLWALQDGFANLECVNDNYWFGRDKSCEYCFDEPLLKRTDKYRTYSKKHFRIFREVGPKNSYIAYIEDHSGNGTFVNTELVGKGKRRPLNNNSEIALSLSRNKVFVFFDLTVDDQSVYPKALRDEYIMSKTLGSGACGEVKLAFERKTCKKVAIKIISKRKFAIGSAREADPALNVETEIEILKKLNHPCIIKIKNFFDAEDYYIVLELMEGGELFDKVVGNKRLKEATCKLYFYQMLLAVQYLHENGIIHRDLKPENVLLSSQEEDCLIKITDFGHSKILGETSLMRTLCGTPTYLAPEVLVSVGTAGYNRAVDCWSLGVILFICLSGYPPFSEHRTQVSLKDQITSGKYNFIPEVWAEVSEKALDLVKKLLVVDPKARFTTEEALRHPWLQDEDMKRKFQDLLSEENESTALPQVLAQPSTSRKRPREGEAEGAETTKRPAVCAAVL
Sequence of Mitogen-activated protein kinase 3 (P27361 whole entry): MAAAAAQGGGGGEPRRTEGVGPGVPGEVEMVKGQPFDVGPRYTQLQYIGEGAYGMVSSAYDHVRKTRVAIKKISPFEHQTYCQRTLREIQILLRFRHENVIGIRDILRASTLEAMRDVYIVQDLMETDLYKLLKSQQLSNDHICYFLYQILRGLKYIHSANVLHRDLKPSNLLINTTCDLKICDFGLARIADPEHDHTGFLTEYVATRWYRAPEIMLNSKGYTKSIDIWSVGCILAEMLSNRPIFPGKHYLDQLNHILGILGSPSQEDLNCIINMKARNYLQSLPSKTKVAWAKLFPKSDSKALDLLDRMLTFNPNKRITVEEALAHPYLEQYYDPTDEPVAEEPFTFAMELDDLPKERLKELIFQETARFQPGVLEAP

The term ΔTm denotes the shift of the melting midpoint relative to a reference. As to `COc1cc(OC)c(/C=C2\C(=O)Nc3ccccc32)c(OC)c1`, the ΔTm is 0.1 °C in assay [1]; 0.5 °C in [2]; 0.6 °C in assay [3]; 0 °C in [4]; 0.4 °C in assay [5]; 0.2 °C in assay [6]. Moreover, the ΔTm in assay [7] is -0.1 °C; in [8] it was 0.7 °C; in assay [9], 0.8 °C; in assay [10], 0.8 °C; in assay [11], 0 °C; in [12], -0.1 °C. In addition, the ΔTm was 0 °C in [13]; -0.4 °C in assay [14]; -0.2 °C in [15]; 0 °C in [16]; 0.5 °C in assay [17]; -1 °C in assay [18]. Besides, the ΔTm in assay [19] is -0.2 °C; in assay [20], -0.7 °C.

With `N#C/C(=C(/N)Sc1ccc(N)cc1)c1ccccc1C(F)(F)F`, the ΔTm in [1] amounted to 0 °C; in assay [2], 0.2 °C; in [3], 0 °C; in assay [4], 1 °C; in assay [5] it was 1.3 °C; in [6] it was 0.4 °C. Besides, the ΔTm in assay [7] was 0.8 °C; in [8], 0.5 °C; in assay [9], -0.1 °C; in assay [10], 0.4 °C; in assay [11] it was 0.4 °C; in [12], 0.5 °C. The ΔTm is -0.1 °C in [13]; 0.8 °C in assay [14]; -0.2 °C in assay [15]; 0.1 °C in assay [16]; 0.4 °C in [17]; -0.2 °C in assay [18]. The ΔTm in assay [19] and in assay [20] was 0.3 °C each time.

With `O=C1NC(=O)c2c1c1c3ccccc3[nH]c1n1cncc21` [ISOGRANULATIMIDE], the ΔTm amounted to 2.1 °C in assay [1]; 8 °C in [2]; 2 °C in assay [3]; 5.4 °C in assay [4]; 2.4 °C in assay [5]; 2.4 °C in [6]. Moreover, the shift in melting temperature (ΔTm) was 2.5 °C in [7]; 3.7 °C in assay [8]; 0 °C in assay [9]; 5.4 °C in assay [10]; -0.5 °C in assay [11]; 6 °C in assay [12]. In addition, the ΔTm in assay [13] stood at 2 °C; in [14], 5.3 °C; in assay [15] it was 7.3 °C; in assay [16], 2.5 °C; in assay [17], 5.2 °C; in [18], 9 °C. In addition, the results for the ΔTm in assay [19] and in assay [20] were 1 °C and 6.6 °C, respectively.

On to `COc1cc(O)c2c(c1)oc(=O)c1c3cc(O)c(O)cc3oc21` [WEDELOLACTONE], for which the ΔTm was 1.3 °C in assay [1]; 2.2 °C in assay [2]; 1.5 °C in assay [3]; 3.2 °C in assay [4]; 2 °C in [5]; 0.5 °C in [6]. In addition, the ΔTm was 2.4 °C in assay [7]; -1 °C in [8]; 1.3 °C in [9]; 1.3 °C in [10]; -0.6 °C in [11]; 0.8 °C in [12]. Besides, the ΔTm in [13] was 0.8 °C; in assay [14] it was 0.1 °C; in assay [15], 3.6 °C; in assay [16] it was 0.2 °C; in [17], -4.5 °C; in assay [18], 3.4 °C. Moreover, the ΔTm in assay [19] was 1.1 °C; in assay [20] it was 1.8 °C.

For the compound `O=C1Nc2ccccc2/C1=C/c1cnc[nH]1`, the ΔTm is 3.3 °C in assay [1]; 1.9 °C in [2]; 0.4 °C in assay [3]; 4.5 °C in assay [4]; 2 °C in assay [5]; 2.9 °C in assay [6]. Moreover, the ΔTm in [7] turned out to be 8.4 °C; in [8], 0.1 °C; in [9], 6.1 °C; in assay [10] it was 4.2 °C; in assay [11], 1.9 °C; in assay [12], 0.7 °C. Also, the thermal shift (ΔTm) in [13] came out at 2.1 °C; in assay [14], 2 °C; in assay [15], 1.3 °C; in assay [16], 1.2 °C; in assay [17], 6.6 °C; in assay [18], 3 °C. Also, the ΔTm in assay [19] came to 0.7 °C; in assay [20] it was 3 °C.

Consider `O=C1C(Cl)=C(N2C(=O)CCC2=O)C(=O)c2ccccc21`, for which the ΔTm in [1] was -0.6 °C; in assay [2], -4.1 °C; in [3] it was 8.6 °C; in assay [4], -2.1 °C; in assay [5], 2.5 °C; in [6], -1.4 °C. Moreover, the ΔTm is -0.8 °C in assay [7]; -0.7 °C in assay [8]; -2.4 °C in [9]; -0.5 °C in assay [10]; -5 °C in [11]; 1.2 °C in assay [12]. Moreover, the ΔTm in assay [13] was 1 °C; in [14], -2.4 °C; in assay [15], -1.5 °C; in assay [16], -0.4 °C; in assay [17], -1.1 °C; in assay [18] it was 0.9 °C. Moreover, the ΔTm in [19] was -9.6 °C; in assay [20] it was 5.6 °C.

On to `COc1cc(C[C@H]2C(=O)OC[C@@H]2Cc2ccc(OC)c(OC)c2)ccc1O` [ARCTIGENIN], for which the ΔTm in assay [1] is -0.5 °C; in assay [2], 0 °C; in [3], -0.2 °C; in [4], 0.2 °C; in [5], 1.1 °C; in assay [6], 0.5 °C. In addition, the ΔTm in assay [7] is 0.8 °C; in assay [8] it was 0.4 °C; in [9], -0.2 °C; in assay [10] it was 0.7 °C; in assay [11] it was 0.1 °C; in [12], -0.5 °C. In addition, the ΔTm in [13] was -0.4 °C; in [14], 0 °C; in assay [15], -0.2 °C; in assay [16], 0.3 °C; in assay [17] it was 0.6 °C; in [18], -0.3 °C. The ΔTm in assay [19] is 0.1 °C; in assay [20], -0.3 °C.
